Data reported in ChEMBL document CHEMBL6083243, “Design, synthesis and biological evaluation of sulfonylurea derivatives as NLRP3 inflammasome inhibitors” (Bioorg Med Chem Lett, 2024).
The source made the active and inactive calls. The rule behind the calls is not given here.

Key:
[1] = target: NACHT, LRR and PYD domains-containing protein 3 (Mus musculus, UniProt Q8R4B8); assay: Inhibition of NLRP3 inflammasome activation in LPS/Nigericin stimulated mouse BMDM cells assessed as reduction in cleaved-IL-1 beta level by ELISA method; format: cell-based
Sequence of NACHT, LRR and PYD domains-containing protein 3 (Q8R4B8 whole entry, the tested form may be a part): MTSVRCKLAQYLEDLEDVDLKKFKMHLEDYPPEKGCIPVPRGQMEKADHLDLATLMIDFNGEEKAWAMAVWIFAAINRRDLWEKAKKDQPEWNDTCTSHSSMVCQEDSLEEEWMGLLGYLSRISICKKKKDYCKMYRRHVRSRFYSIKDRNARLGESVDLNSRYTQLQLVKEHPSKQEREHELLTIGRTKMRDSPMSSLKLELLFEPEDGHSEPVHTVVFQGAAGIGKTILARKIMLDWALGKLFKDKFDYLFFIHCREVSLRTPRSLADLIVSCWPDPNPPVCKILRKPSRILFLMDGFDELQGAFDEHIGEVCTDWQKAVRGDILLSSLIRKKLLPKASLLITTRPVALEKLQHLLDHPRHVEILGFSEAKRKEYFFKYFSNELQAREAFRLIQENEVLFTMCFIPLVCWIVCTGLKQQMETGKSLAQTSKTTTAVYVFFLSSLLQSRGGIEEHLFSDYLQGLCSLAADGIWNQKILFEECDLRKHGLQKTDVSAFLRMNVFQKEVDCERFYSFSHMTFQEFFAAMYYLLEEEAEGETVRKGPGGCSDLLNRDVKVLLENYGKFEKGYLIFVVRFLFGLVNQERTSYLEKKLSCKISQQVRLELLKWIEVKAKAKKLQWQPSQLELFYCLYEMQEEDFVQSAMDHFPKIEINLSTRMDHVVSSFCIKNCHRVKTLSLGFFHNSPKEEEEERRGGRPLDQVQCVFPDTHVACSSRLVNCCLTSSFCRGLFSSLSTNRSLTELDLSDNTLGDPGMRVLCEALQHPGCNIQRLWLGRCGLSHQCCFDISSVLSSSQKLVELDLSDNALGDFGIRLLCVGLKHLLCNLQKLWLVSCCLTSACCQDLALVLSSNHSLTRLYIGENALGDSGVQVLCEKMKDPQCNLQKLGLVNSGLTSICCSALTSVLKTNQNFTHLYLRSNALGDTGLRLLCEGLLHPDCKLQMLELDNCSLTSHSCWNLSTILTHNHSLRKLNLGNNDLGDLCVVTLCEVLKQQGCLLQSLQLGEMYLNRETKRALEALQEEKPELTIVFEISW

[2] = target: NACHT, LRR and PYD domains-containing protein 3 (Mus musculus) (UniProt Q8R4B8); assay: Inhibition of NLRP3 inflammasome activation in LPS/Nigericin stimulated mouse BMDM cells assessed as reduction in active caspase-1 level by Western blot analysis; format: cell-based; details: dose 0.2-2 µM
Sequence of NACHT, LRR and PYD domains-containing protein 3 (Mus musculus) (Q8R4B8 whole entry, the tested form may be a part): as above

BMDM = assay: Effect on NLRP3 protein expression in mouse BMDM cell lysate at 0.02 to 2 uM by Western blot analysis; format: functional, subcellular; details: dose 0.02-2 µM
[3] = target: NACHT, LRR and PYD domains-containing protein 3 (Mus musculus) (UniProt Q8R4B8); assay: Inhibition of NLRP3 inflammasome activation in LPS/Nigericin stimulated mouse BMDM cells assessed as reduction in IL-1 beta level by Western blot analysis; format: cell-based; details: dose 0.2-2 µM
Carbonic anhydrase 2 = Carbonic anhydrase 2 (Homo sapiens, UniProt P00918); assay: Inhibition of Carbonic anhydrase II (unknown origin)

Row | IC50 [1] [nM] | inhibition [2] | inhibition [3] | IC50 (Carbonic anhydrase 2) [nM] | SMILES | Activity (BMDM)
1 | 805 | Dose-dependent-effect | Dose-dependent-effect |  | O=C(Nc1c(Br)cc(Cl)cc1Oc1ccccc1)NS(=O)(=O)c1cc(Br)cc2c1OCC2 | inactive
2 | 171 |  |  |  | CC(C)c1cc(Cl)cc(C(C)C)c1NC(=O)NS(=O)(=O)c1cc(C(C)(C)O)co1 | 
3 | 126 |  |  | 11000 | CC(C)(O)c1coc(S(=O)(=O)NC(=O)Nc2c3c(cc4c2CCC4)CCC3)c1 | 
